According to patent US9409905B2, “Antibacterial compounds and methods for use” (PTC THERAPEUTICS, INC., priority 2011, dated 2016):
In brackets after ≈: the same amount, converted by molar mass.

How the values were obtained:
E. coli LZ3111 = assay: Antibacterial activity, MIC, quinolone resistant strain (Table 2); type: cell-based; conditions: Escherichia coli, LZ3111, read-out: MIC LZ3111
Summary of the method: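 Broth microdilution. Read-out: MIC in μg/mL, taken as lowest concentration with no macroscopically visible growth.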

[1] = system: Escherichia coli (E. coli) BAS849; assay: Antibacterial activity, microbroth dilution MIC (Table 1); type: cell-based; conditions: microbroth dilution, super sensitive Gram-negative E. coli BAS849, read-out: MIC, BAS849
Summary of the method: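 Read-out: visual absence of growth. The lowest concentration meeting this gives the MIC, expressed in μg/mL, with microbroth dilution as the method.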

[2] = system: Staphylococcus aureus (S. aureus) 29213; assay: as above; type: cell-based; conditions: microbroth dilution, Gram-positive S. aureus 29213, read-out: MIC, 29213
Summary of the method: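 In a microbroth dilution test, the minimum inhibitory concentration was defined as the lowest compound level preventing growth seen by eye, and was given in μg/mL.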

E. coli 25922 = assay: as above; type: cell-based, Escherichia coli; conditions: Escherichia coli; microbroth dilution; control Gram-negative E. coli 25922 strain; read-out: MIC, 25922
Summary of the method: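 Values are MICs (μg/mL): the smallest drug amount at which macroscopically visible bacterial growth is absent under assay conditions, from a microdilution method in broth.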

SMILES	MIC (E. coli LZ3111) [µg/mL]	MIC [1] [µg/mL]	MIC [2] [µg/mL]	MIC (E. coli 25922) [µg/mL]
CCc1cc(C(=O)O)c(=O)[nH]c1-c1ccc2c(c1)cc(CN1CCc3ccccc3C1)n2C [Cpd 134, 6-(2-((3,4-dihydroisoquinolin-2(1H)-yl)methyl)-1-methyl-1H-indol-5-yl)-5-ethyl-2-oxo-1,2-dihydropyridine-3-carboxylic acid]	12.5 to 150 (≈ 28.3 to 340 µM)	< 1	3.5 to 12.5 (≈ 7.93 to 28.3 µM)	1 to 3.5 (≈ 2.26 to 7.93 µM)
CCc1cc(C(=O)O)c(=O)[nH]c1-c1ccc2c(c1)cc(CN1Cc3cccnc3C1)n2C [Cpd 135, 6-(2-((5H-pyrrolo[3,4-b]pyridin-6(7H)-yl)methyl)-1-methyl-1H-indol-5-yl)-5-ethyl-2-oxo-1,2-dihydropyridine-3-carboxylic acid]	12.5 to 150 (≈ 29.2 to 350 µM)	< 1	12.5 to 150 (≈ 29.2 to 350 µM)	3.5 to 12.5 (≈ 8.17 to 29.2 µM)
CCc1cc(C(=O)O)c(=O)[nH]c1-c1ccc2c(c1)cc(CN1CC3CCCNC3C1)n2C (stereo not drawn) [Cpd 136, 5-ethyl-6-(1-methyl-2-((tetrahydro-1H-pyrrolo[3,4-b]pyridin-6(2H,7H,7aH)-yl)methyl)-1H-indol-5-yl)-2-oxo-1,2-dihydropyridine-3-carboxylic acid]	12.5 to 150 (≈ 28.8 to 345 µM)	1 to 3.5 (≈ 2.3 to 8.05 µM)	12.5 to 150 (≈ 28.8 to 345 µM)	3.5 to 12.5 (≈ 8.05 to 28.8 µM)
CCc1cc(C(=O)O)c(=O)[nH]c1-c1ccc2c(c1)cc(CN1C[C@@H](C)O[C@@H](C)C1)n2C [Cpd 138, 6-(2-((cis-2,6-dimethylmorpholino)methyl)-1-methyl-1H-indol-5-yl)-5-ethyl-2-oxo-1,2-dihydropyridine-3-carboxylic acid]	12.5 to 150 (≈ 29.5 to 354 µM)	< 1	12.5 to 150 (≈ 29.5 to 354 µM)	3.5 to 12.5 (≈ 8.26 to 29.5 µM)
CCc1cc(C(=O)O)c(=O)[nH]c1-c1ccc2c(c1)cc(CN1CCNCC1)n2C [Cpd 139, 5-ethyl-6-(1-methyl-2-(piperazin-1-ylmethyl)-1H-indol-5-yl)-2-oxo-1,2-dihydropyridine-3-carboxylic acid]	12.5 to 150 (≈ 31.7 to 380 µM)	1 to 3.5 (≈ 2.54 to 8.87 µM)	12.5 to 150 (≈ 31.7 to 380 µM)	12.5 to 150 (≈ 31.7 to 380 µM)
CCc1cc(C(=O)O)c(=O)[nH]c1-c1ccc2c(c1)cc(CN1CCN(C(C)C)CC1)n2C [Cpd 141, 5-ethyl-6-(2-((4-isopropylpiperazin-1-yl)methyl)-1-methyl-1H-indol-5-yl)-2-oxo-1,2-dihydropyridine-3-carboxylic acid]	12.5 to 150 (≈ 28.6 to 344 µM)	< 1	12.5 to 150 (≈ 28.6 to 344 µM)	1 to 3.5 (≈ 2.29 to 8.02 µM)
CCc1cc(C(=O)O)c(=O)[nH]c1-c1ccc2c(c1)cc(CN1CC3CC1CN3)n2C (stereo not drawn) [Cpd 142, 6-(2-(2,5-diazabicyclo[2.2.1]heptan-2-ylmethyl)-1-methyl-1H-indol-5-yl)-5-ethyl-2-oxo-1,2-dihydropyridine-3-carboxylic acid]	12.5 to 150 (≈ 30.8 to 369 µM)	3.5 to 12.5 (≈ 8.61 to 30.8 µM)	12.5 to 150 (≈ 30.8 to 369 µM)	12.5 to 150 (≈ 30.8 to 369 µM)
CCc1cc(C(=O)O)c(=O)[nH]c1-c1ccc2c(c1)cc(CN1C[C@@H]3[C@H](C1)[C@H]3N(Cc1ccccc1)Cc1ccccc1)n2C [Cpd 143, 6-(2-(((1R,5S,6s)-6-(dibenzylamino)-3-azabicyclo[3.1.0]hexan-3-yl)methyl)-1-methyl-1H-indol-5-yl)-5-ethyl-2-oxo-1,2-dihydropyridine-3-carboxylic acid]	12.5 to 150 (≈ 21.3 to 256 µM)	< 1	3.5 to 12.5 (≈ 5.97 to 21.3 µM)	12.5 to 150 (≈ 21.3 to 256 µM)
CCc1cc(C(=O)O)c(=O)[nH]c1-c1ccc2c(c1)cc(CN1CCN(C(C)=O)CC1)n2C [Cpd 144, 6-(2-((4-acetylpiperazin-1-yl)methyl)-1-methyl-1H-indol-5-yl)-5-ethyl-2-oxo-1,2-dihydropyridine-3-carboxylic acid]	12.5 to 150 (≈ 28.6 to 344 µM)	< 1	12.5 to 150 (≈ 28.6 to 344 µM)	3.5 to 12.5 (≈ 8.02 to 28.6 µM)
CCc1cc(C(=O)O)c(=O)[nH]c1-c1ccc2c(c1)cc(CN(C)C(C)=O)n2C [Cpd 145, 5-ethyl-6-(1-methyl-2-((N-methylacetamido)methyl)-1H-indol-5-yl)-2-oxo-1,2-dihydropyridine-3-carboxylic acid]	12.5 to 150 (≈ 32.8 to 393 µM)	< 1	12.5 to 150 (≈ 32.8 to 393 µM)	3.5 to 12.5 (≈ 9.18 to 32.8 µM)
CCc1cc(C(=O)O)c(=O)[nH]c1-c1ccc2c(c1)cc(CN1C[C@H]3CCC[C@@H](N(C)Cc4ccccc4)[C@H]3C1)n2C [Cpd 146, 6-(2-(((3aR,4R,7aS)-4-(benzyl(methyl)amino)-1H-isoindol-2(3H,3aH,4H,5H,6H,7H,7aH)-yl)methyl)-1-methyl-1H-indol-5-yl)-5-ethyl-2-oxo-1,2-dihydropyridine-3-carboxylic acid]	12.5 to 150 (≈ 22.6 to 271 µM)	< 1	12.5 to 150 (≈ 22.6 to 271 µM)	1 to 3.5 (≈ 1.81 to 6.33 µM)
CCc1cc(C(=O)O)c(=O)[nH]c1-c1ccc2c(c1)cc(CN1C[C@H]3CC[C@@H](N(C)C)[C@H]3C1)n2C [Cpd 147, 6-(2-(((3aR,4R,6aS)-4-(dimethylamino)hexahydrocyclopenta[c]pyrrol-2(1H)-yl)methyl)-1-methyl-1H-indol-5-yl)-5-ethyl-2-oxo-1,2-dihydropyridine-3-carboxylic acid]	12.5 to 150 (≈ 27 to 324 µM)	< 1	12.5 to 150 (≈ 27 to 324 µM)	< 1
CCc1cc(C(=O)O)c(=O)[nH]c1-c1ccc2c(c1)cc(CN1C[C@H]3CCC[C@@H](NC)[C@H]3C1)n2C [Cpd 148, 5-ethyl-6-(1-methyl-2-(((3aR,4R,7aS)-4-(methylamino)-1H-isoindol-2(3H,3aH,4H,5H,6H,7H,7aH)-yl)methyl)-1H-indol-5-yl)-2-oxo-1,2-dihydropyridine-3-carboxylic acid]	12.5 to 150 (≈ 27 to 324 µM)	1 to 3.5 (≈ 2.16 to 7.57 µM)	12.5 to 150 (≈ 27 to 324 µM)	3.5 to 12.5 (≈ 7.57 to 27 µM)
CCc1cc(C(=O)O)c(=O)[nH]c1-c1ccc2c(c1)cc(CN1C[C@H]3CCC[C@@H](N(C)C)[C@H]3C1)n2C [Cpd 149, 6-(2-(((3aR,4R,7aS)-4-(dimethylamino)-1H-isoindol-2(3H,3aH,4H,5H,6H,7H,7aH)-yl)methyl)-1-methyl-1H-indol-5-yl)-5-ethyl-2-oxo-1,2-dihydropyridine-3-carboxylic acid]	12.5 to 150 (≈ 26.2 to 315 µM)	< 1	12.5 to 150 (≈ 26.2 to 315 µM)	1 to 3.5 (≈ 2.1 to 7.34 µM)
CCc1cc(C(=O)O)c(=O)[nH]c1-c1ccc2c(c1)cc(CN)n2C [Cpd 150, 6-(2-(aminomethyl)-1-methyl-1H-indol-5-yl)-5-ethyl-2-oxo-1,2-dihydropyridine-3-carboxylic acid]	12.5 to 150 (≈ 38.4 to 461 µM)	< 1	12.5 to 150 (≈ 38.4 to 461 µM)	1 to 3.5 (≈ 3.07 to 10.8 µM)
CCc1cc(C(=O)O)c(=O)[nH]c1-c1ccc2c(c1)cc1n2CCC1N1CCCC1 (stereo not drawn) [Cpd 151, 5-ethyl-2-oxo-6-(1-(pyrrolidin-1-yl)-2,3-dihydro-1H-pyrrolo[1,2-a]indol-7-yl)-1,2-dihydropyridine-3-carboxylic acid]	12.5 to 150 (≈ 31.9 to 383 µM)	< 1	12.5 to 150 (≈ 31.9 to 383 µM)	1 to 3.5 (≈ 2.55 to 8.94 µM)
CCc1cc(C(=O)O)c(=O)[nH]c1-c1ccc2c(c1)cc1n2CCC1N1CCC(N(C)C)C1 (stereo not drawn) [Cpd 153, 6-(1-(3-(dimethylamino)pyrrolidin-1-yl)-2,3-dihydro-1H-pyrrolo[1,2-a]indol-7-yl)-5-ethyl-2-oxo-1,2-dihydropyridine-3-carboxylic acid]	12.5 to 150 (≈ 28.8 to 345 µM)	< 1	12.5 to 150 (≈ 28.8 to 345 µM)	3.5 to 12.5 (≈ 8.05 to 28.8 µM)
CCc1cc(C(=O)O)c(=O)[nH]c1-c1ccc2c(c1)cc(C1CCNC1)n2C.Cl (stereo not drawn) [Cpd 156, 5-ethyl-6-(1-methyl-2-(pyrrolidin-3-yl)-1H-indol-5-yl)-2-oxo-1,2-dihydropyridine-3-carboxylic acid hydrochloride]	12.5 to 150	3.5 to 12.5	12.5 to 150	12.5 to 150
